# Data taken from patent publication US8642770B2, “Indole derivative” (Takeda Pharmaceutical Company Limited, priority 2010, dated 2014).
row,SMILES,melting point [°C]
1,"Cc1c(NC(=O)c2ccc(OC[C@@H]3CCCO3)cc2F)ccc2cc(CN[C@H]3CC[C@](C)(O)CC3)[nH]c12 [Example 77, 2-fluoro-N-(2-{[(trans-4-hydroxy-4-methylcyclohexyl)amino]methyl}-7-methyl-1H-indol-6-yl)-4-[(2S)-tetrahydrofuran-2-ylmethoxy]benzamide]",152 to 153
2,"Cc1c(NC(=O)c2ccc(OCC3CC3)cc2)ccc2cc(CN[C@H]3CC[C@](C)(O)CC3)n(C)c12 [Example 79, 4-(cyclopropylmethoxy)-N-(2-{[(trans-4-hydroxy-4-methylcyclohexyl)amino]methyl}-1,7-dimethyl-1H-indol-6-yl)benzamide]",167
3,"Cc1c(NC(=O)c2ccc(OCC3CC3)cc2)ccc2cc(CN3CCC(C)(O)CC3)n(C)c12 [Example 80, 4-(cyclopropylmethoxy)-N-{2-[(4-hydroxy-4-methylpiperidin-1-yl)methyl]-1,7-dimethyl-1H-indol-6-yl}benzamide]",152 to 155
4,"Cc1c(NC(=O)c2ccc(OC[C@@H]3CCCO3)cc2)ccc2cc(CNCC(C)(C)C)n(C)c12 [Example 81, N-(2-{[(2,2-dimethylpropyl)amino]methyl}-1,7-dimethyl-1H-indol-6-yl)-4-[(2S)-tetrahydrofuran-2-ylmethoxy]benzamide]",201
5,"Cc1c(NC(=O)c2ccc(OC[C@@H]3CCCO3)cc2)ccc2cc(CNCC(C)(C)O)n(C)c12 [Example 82, N-(2-{[(2-hydroxy-2-methylpropyl)amino]methyl}-1,7-dimethyl-1H-indol-6-yl)-4-[(2S)-tetrahydrofuran-2-ylmethoxy]benzamide]",197 to 200
6,"Cc1c(NC(=O)c2ccc(OC[C@@H]3CCCO3)cc2)ccc2cc(CNCC(C)C)n(C)c12 [Example 85, N-(1,7-dimethyl-2-{[(2-methylpropyl)amino]methyl}-1H-indol-6-yl)-4-[(2S)-tetrahydrofuran-2-ylmethoxy]benzamide]",183
7,"Cc1c(NC(=O)c2ccc(OC[C@@H]3CCCO3)cc2)ccc2cc(CN3CCC(C)(O)CC3)n(C)c12 [Example 87, N-{2-[(4-hydroxy-4-methylpiperidin-1-yl)methyl]-1,7-dimethyl-1H-indol-6-yl}-4-[(2S)-tetrahydrofuran-2-ylmethoxy]benzamide]",140 to 141
8,"Cc1c(NC(=O)c2ccc(OC[C@@H]3CCCO3)cc2F)ccc2cc(CNCC(C)(C)O)n(C)c12 [Example 89, 2-fluoro-N-(2-{[(2-hydroxy-2-methylpropyl)amino]methyl}-1,7-dimethyl-1H-indol-6-yl)-4-[(2S)-tetrahydrofuran-2-ylmethoxy]benzamide]",132 to 133
9,"Cc1c(NC(=O)c2ccc(C#CC3(O)CC3)cc2)ccc2cc(CNCC(C)C)n(C)c12 [Example 90, N-(1,7-dimethyl-2-{[(2-methylpropyl)amino]methyl}-1H-indol-6-yl)-4-[(1-hydroxycyclopropyl)ethynyl]benzamide]",186
10,"Cc1c(NC(=O)c2ccc(C#CC3(O)CC3)cc2)ccc2cc(CNCC(C)(C)C)n(C)c12 [Example 91, N-(2-{[(2,2-dimethylpropyl)amino]methyl}-1,7-dimethyl-1H-indol-6-yl)-4-[(1-hydroxycyclopropyl)ethynyl]benzamide]",182 to 183
11,"Cc1c(NC(=O)c2ccc(C#CC3(O)CCC3)cc2)ccc2cc(CNCC(C)C)n(C)c12 [Example 92, 4-[(1-hydroxycyclobutyl)ethynyl]-N-(2-{[(2-methylpropyl)amino]methyl}-1,7-dimethyl-1H-indol-6-yl)benzamide]",222 to 223
12,"Cc1c(NC(=O)c2ccc(C#CC3(O)CCC3)cc2)ccc2cc(CNCC(C)(C)C)n(C)c12 [Example 93, N-(2-{[(2,2-dimethylpropyl)amino]methyl}-1,7-dimethyl-1H-indol-6-yl)-4-[(1-hydroxycyclobutyl)ethynyl]benzamide]",232 to 233
13,"Cc1c(NC(=O)c2ccc(C#CC3(O)CCC3)cc2)ccc2cc(CNCC3CCOCC3)n(C)c12 [Example 94, N-(1,7-dimethyl-2-{[(tetrahydro-2H-pyran-4-ylmethyl)amino]methyl}-1H-indol-6-yl)-4-[(1-hydroxycyclobutyl)ethynyl]benzamide]",202 to 204
14,"Cc1c(CNCC(C)C)[nH]c2c(C)c(NC(=O)c3ccc(OC[C@@H]4CCCO4)cc3)ccc12 [Example 96, N-(2-{[(2-methylpropyl)amino]methyl}-3,7-dimethyl-1H-indol-6-yl)-4-[(2S)-tetrahydrofuran-2-ylmethoxy]benzamide]",118 to 119
15,"Cc1c(CNCC2CCOCC2)[nH]c2c(C)c(NC(=O)c3ccc(OC[C@@H]4CCCO4)cc3)ccc12 [Example 97, N-(3,7-dimethyl-2-{[(tetrahydro-2H-pyran-4-ylmethyl)amino]methyl}-1H-indol-6-yl)-4-[(2S)-tetrahydrofuran-2-ylmethoxy]benzamide]",184 to 185
16,"Cc1c(CNCC(C)(C)C)[nH]c2c(C)c(NC(=O)c3ccc(OC[C@@H]4CCCO4)cc3)ccc12 [Example 98, N-(2-{[(2,2-dimethylpropyl)amino]methyl}-3,7-dimethyl-1H-indol-6-yl)-4-[(2S)-tetrahydrofuran-2-ylmethoxy]benzamide]",178 to 179
17,"Cc1c(CN[C@H]2CC[C@](C)(O)CC2)[nH]c2c(C)c(NC(=O)c3ccc(OC[C@@H]4CCCO4)cc3)ccc12 [Example 99, N-(2-{[(trans-4-hydroxy-4-methylcyclohexyl)amino]methyl}-3,7-dimethyl-1H-indol-6-yl)-4-[(2S)-tetrahydrofuran-2-ylmethoxy]benzamide]",134 to 135
18,"Cc1c(CNC2CCCC2)[nH]c2c(C)c(NC(=O)c3ccc(OC[C@@H]4CCCO4)cc3)ccc12 [Example 100, N-{2-[(cyclopentylamino)methyl]-3,7-dimethyl-1H-indol-6-yl}-4-[(2S)-tetrahydrofuran-2-ylmethoxy]benzamide]",107 to 109
19,"Cc1c(CNCC(C)(C)O)[nH]c2c(C)c(NC(=O)c3ccc(OC[C@@H]4CCCO4)cc3F)ccc12 [Example 101, 2-fluoro-N-(2-{[(2-hydroxy-2-methylpropyl)amino]methyl}-3,7-dimethyl-1H-indol-6-yl)-4-[(2S)-tetrahydrofuran-2-ylmethoxy]benzamide]",151 to 152
20,"Cc1c(CN[C@H]2CC[C@](C)(O)CC2)[nH]c2c(C)c(NC(=O)c3ccc(OC[C@@H]4CCCO4)cc3F)ccc12 [Example 102, 2-fluoro-N-(2-{[(trans-4-hydroxy-4-methylcyclohexyl)amino]methyl}-3,7-dimethyl-1H-indol-6-yl)-4-[(2S)-tetrahydrofuran-2-ylmethoxy]benzamide]",177 to 178
21,"Cc1c(CNCC(C)C)[nH]c2c(F)c(NC(=O)c3ccc(OC[C@@H]4CCCO4)cc3)ccc12 [Example 104, N-(7-fluoro-2-{[(2-methylpropyl)amino]methyl}-3-methyl-1H-indol-6-yl)-4-[(2S)-tetrahydrofuran-2-ylmethoxy]benzamide]",134 to 135
22,"Cc1c(CNCC(C)C)n(C)c2c(C)c(NC(=O)c3ccc(OC[C@@H]4CCCO4)cc3)ccc12 [Example 106, N-(2-{[(2-methylpropyl)amino]methyl}-1,3,7-trimethyl-1H-indol-6-yl)-4-[(2S)-tetrahydrofuran-2-ylmethoxy]benzamide]",171 to 172
